US20080125496A1, “ANTIMICROBIAL FLAVOR AND ORAL CARE COMPOSITION CONTAINING THE SAME” (TAKASAGO INTERNATIONAL CORPORATION, priority 2001, published 2008)
≈ marks a conversion by molar mass, not a printed value. Where two headings read alike, the source gives them in different places.

Tests used:
Assay type in all cases: cell-based
[1] = test system: Prevotella intermedia JCM 6322; assay: MIC by agar plate dilution method, Pt-1; conditions: for MIC: Prevotella intermedia, read-out: MIC Pt-1 (paradentosis-related bacteria)
Procedure: (§1) The minimum inhibitory activities of the antimicrobial flavors of the invention on anaerobic oral bacteria were measured by an agar plate dilution method.
(§2) All the test strains were obtained from Riken (The Institute of Physical and Chemical Research). The names and abbreviations of the strains are shown in Table 1 below (The abbreviations are used in the following description).
(§3) Each test microorganism kept frozen (−80° C.) in glycerol at a concentration of 25% was thawed. A 100 μl portion of the suspension was inoculated into 10 ml of a liquid medium. A Gifu university anaerobic medium (GAM) (Nissui Pharmaceutical Co., Ltd) having added thereto Hemin (Tokyo Kasei) and Menadione (Sigma) was used for Su-1 and Fn-1. Schaedler Broth (BBL) having added thereto Hemin and Menadione was used for the other strains. The culture was anaerobically incubated at 37° C. for 72 hours by using BBL Gas Pack Anaerobic System. After the cultivation, the microbial cell suspension of Su-1 was 10-fold diluted to prepare an inoculum. The cultures of Fn-1 and Pg-1 were used as such as an inoculum. The cultures of Pt-1, Aa-1, and Av-1 were subjected to centrifugation, and the separated microbial cells were suspended in 2 ml of sterilized physiological saline to prepare the respective inoculums.
(§4) An agar medium prepared by adding 2% agar (Difco), Hemin, and Menadione to Trypticase Soy Broth (BBL) was used. A test sample (antimicrobial flavor) was dissolved in ethanol to prepare 2-fold serial dilutions. To 10 ml of the agar medium was added 100 μl of each dilution and stirred well. The agar medium was transferred to a petri dish (diameter: 9 cm) and solidified at room temperature. The solidified agar medium was inoculated with 5 μl of the inoculum by means of a multipoint inoculator (Microplanter MIT-P27, supplied by Sakuma Seisakusho), followed by culturing at 37° C. for 72 hours under anaerobic conditions. The growth of the test microorganism was compared with a blank petri dish (the agar medium to which 100 μl of ethanol had been added). The lowest sample concentration that inhibited growth was taken as MIC (ppm).
(§5) Antimicrobial activities (MIC; ppm) of the aromahygiene base (AHB) prepared in (1) and the antimicrobial flavor compositions prepared in (2) (Examples 2-1 to 2-3) and Comparative Examples 2-1 to 2-3 were measured in the same manner as in Example 1 (2).

[2] = test system: Actinomyces naeslundii JCM 8350; assay: MIC by agar plate dilution method, Aa-1; conditions: for MIC: Actinomyces naeslundii, read-out: MIC Aa-1 (caries-related bacteria)
Procedure: as §1, §2, §3, §4, §5

[3] = test system: Fusobacterium nucleatum JCM 6328; assay: MIC by agar plate dilution method, Fn-1; conditions: for MIC: Fusobacterium nucleatum, read-out: MIC Fn-1 (paradentosis-related bacteria)
Procedure: as §1, §2, §3, §4, §5

[4] = test system: Actinomyces viscosus JCM 8352; assay: MIC by agar plate dilution method, Av-1; conditions: for MIC: Actinomyces viscosus, read-out: MIC Av-1 (caries-related bacteria)
Procedure: as §1, §2, §3, §4, §5

[5] = test system: Porphyromonas gingivalis JCM 8525; assay: MIC by agar plate dilution method, Pg-1; conditions: for MIC: Porphyromonas gingivalis, read-out: MIC Pg-1 (paradentosis-related bacteria; head Fg-1 in Tables 2 and 3)
Procedure: as §1, §2, §3, §4, §5

[6] = test system: Streptococcus mutans JCM 5175; assay: MIC by agar plate dilution method, Su-1; conditions: for MIC: Streptococcus mutans, read-out: MIC Su-1 (caries-related bacteria)
Procedure: as §1, §2, §3, §4, §5

[7] = JCM6322, agar medium, 37° C., 72 hours, anaerobic conditions
[8] = JCM8350, agar medium, 37° C., 72 hours, anaerobic conditions
[9] = JCM6328, agar medium, 37° C., 72 hours, anaerobic conditions
[10] = JCM8352, agar medium, 37° C., 72 hours, anaerobic conditions
[11] = JCM8525, agar medium, 37° C., 72 hours, anaerobic conditions
[12] = JCM5175, agar medium, 37° C., 72 hours, anaerobic conditions
[13] = agar medium, 37° C., 72 hours, anaerobic conditions

Row | SMILES | MIC Pt-1 (paradentosis-related bacteria) [1, 13] | MIC Aa-1 (caries-related bacteria) [2, 13] | MIC Fn-1 (paradentosis-related bacteria) [3, 13] | MIC Av-1 (caries-related bacteria) [4, 13] | MIC Pg-1 (paradentosis-related bacteria; head Fg-1 in Tables 2 and 3) [5, 13] | MIC Su-1 (caries-related bacteria) [6, 13] | also measured
1 | C[C@@H]1CC[C@H]2C(C)(C)[C@H]3C[C@@]12CC[C@@]3(C)O [Cedrol] | – | – | – | – | – | – | MIC [1, 7]: 31.3 µg/mL (≈ 141 µM); MIC [2, 8]: > 1000 µg/mL; MIC [3, 9]: > 1000 µg/mL; MIC [4, 10]: > 1000 µg/mL; MIC [5, 11]: 31.3 µg/mL (≈ 141 µM); MIC [6, 12]: > 1000 µg/mL
2 | CC(=O)O[C@]1(C)CC[C@@]23C[C@@H]1C(C)(C)[C@@H]2CC[C@H]3C [Cedryl acetate] | – | – | – | – | – | – | MIC ([1]; JCM6322, 72 h): 62.5 µg/mL; MIC ([2]; JCM8350, 72 h): > 1000 µg/mL; MIC ([3]; JCM6328, 72 h): > 1000 µg/mL; MIC ([4]; JCM8352, 72 h): > 1000 µg/mL; MIC ([5]; JCM8525, 72 h): 31.3 µg/mL; MIC ([6]; JCM5175, 72 h): > 1000 µg/mL
3 | COC(/C=C/c1ccccc1)OC [Cinnamic aldehyde dimethyl acetal] | 62.5 ppm | 125 ppm | 500 ppm | 250 ppm | <15.6 ppm | 250 ppm | –
4 | O=C1CCCCCCCCCCCCCCO1 [Cyclopentadecanolide] | <62.5 ppm | >1000 ppm | >1000 ppm | >1000 ppm | <62.5 ppm | >1000 ppm | –
5 | O=C1CCCCCCCCCCCCCC1 [Cyclopentadecanone] | – | – | – | – | – | – | MIC ([1]; JCM6322, 72 h): < 62.5 µg/mL; MIC ([2]; JCM8350, 72 h): > 1000 µg/mL; MIC ([3]; JCM6328, 72 h): > 1000 µg/mL; MIC ([4]; JCM8352, 72 h): > 1000 µg/mL; MIC ([5]; JCM8525, 72 h): < 62.5 µg/mL; MIC ([6]; JCM5175, 72 h): > 1000 µg/mL
6 | CCCc1ccc(O)c(OC)c1 [Dihydroeugenol] | 62.5 ppm | 500 ppm | 500 ppm | 500 ppm | 62.5 ppm | 1000 ppm | –
7 | CC(C)=CCC/C(C)=C/CCC(C)CCO (stereo not drawn) [Dihydrofarnesol] | 7.8 ppm | 31.3 ppm | 31.3 ppm | 62.5 ppm | 7.8 ppm | 31.3 ppm | –
8 | CCCCCCCCCCCC=O [Dodecanal] | – | – | – | – | – | – | MIC [1, 7]: 62.5 µg/mL (≈ 339 µM); MIC [2, 8]: 500 µg/mL (≈ 2710 µM); MIC [3, 9]: 125 µg/mL (≈ 678 µM); MIC [4, 10]: 500 µg/mL (≈ 2710 µM); MIC [5, 11]: 62.5 µg/mL (≈ 339 µM); MIC [6, 12]: 500 µg/mL (≈ 2710 µM)
9 | O=C1CCCCCCCCCCC(=O)OCCO1 [Ethylenedodecanedioate] | >1000 ppm | >1000 ppm | >1000 ppm | 250 ppm | 31.3 ppm | >1000 ppm | –
10 | CC(C=O)Cc1ccc2c(c1)OCO2 (stereo not drawn) [Helional] | 1000 ppm | 250 ppm | 1000 ppm | 500 ppm | 125 ppm | 1000 ppm | –
11 | CC(C)Cc1ccc2ncccc2c1 [Isobutyl quinoline] | 250 ppm | 250 ppm | 1000 ppm | 250 ppm | 62.5 ppm | 1000 ppm | –
